In one test the target is T1, ABAR (Arabidopsis thaliana, UniProt Q9FNB0).
T1 construct: 6xHis; made in house; host or cells: transgenic yeast (Pichia methanolica), cell-free protein extracts
As to the kind of experiment: Preliminary ABA binding experiment with transgenic yeast extracts expressing ABAR cDNA.

Test [1] has as its system C-terminal portion of the broad bean ABAR or CHLH. As to the kind of experiment: ABA binding to yeast-expressed C-terminal fragment of broad bean ABAR. Set-up: species or system Vicia faba. The settings on record: data not shown. From the text: So we designated it ABAR (for putative abscisic acid receptor). On the basis of the sequencing information, we isolated from broad bean leaves a complementary DNA fragment encoding the carboxy-terminal half of about 770 amino acids of the putative H subunit (CHLH) of the magnesium-protoporphyrin-IX chelatase (Mg-chelatase). CHLH has been reported to have multiple functions in plant cells. In addition to its enzymatic functions as a subunit of the Mg-chelatase in producing photosynthetic apparatus (Walker, C. J. et al., Biochem. J. 327:321-333 (1997)), CHLH has a key function in mediating plastid-to-nucleus signaling (Mochizuki, N. et al., Proc. Natl. Acad. Sci. USA 98:2053-2058 (2001); Surpin, M., et al., Plant Cell S327-S338 (2002); Strand, A., et al., Nature 421:79-83 (2003); Nott, A. et al., Annu. Rev. Plant Biol. 57:730-759 (2006)). […] The information from Vicia faba led us to analyse the functions of ABAR in ABA signalling in Arabidopsis thaliana.

The next test relates to gl1 seedlings. As to the kind of experiment: Effects of ABA in vivo on chlorophyll, porphyrins and ABAR/CHLH protein. Set-up: species or system Arabidopsis thaliana. Conditions: exogenous ABA treatment, 10 d. On the procedure:
The contents of chlorophyll, protoporphyrin IX and Mg-protoporphyrin IX were assayed essentially by the previously described procedures (Mochizuki, N. et al., Proc. Natl. Acad. Sci. USA 98:2053-2058 (2001)).
For the effects of ABA in vivo, the seeds of the ecotype gl1 were germinated after stratification on common MS medium and 48 h later transferred to MS medium supplemented with different concentrations of ABA. 10 d later, the contents of chlorophyll and porphyrins including of protoporphyrin IX and Mg-protoporphyrin IX were measured. At the same time total proteins were extracted from leaves for testing the amounts of ABAR/CHLH protein by immunoblotting.

For the next test, the target named is T2, Mg-chelatase (Arabidopsis thaliana, UniProt Q9FNB0).
T2 construct: isolation of intact chloroplasts from 3-week-old gl1 plants; from tissue; host or cells: intact chloroplasts from 3-week-old Arabidopsis gl1 plants
T2 sequence (Q9FNB0 50-1381): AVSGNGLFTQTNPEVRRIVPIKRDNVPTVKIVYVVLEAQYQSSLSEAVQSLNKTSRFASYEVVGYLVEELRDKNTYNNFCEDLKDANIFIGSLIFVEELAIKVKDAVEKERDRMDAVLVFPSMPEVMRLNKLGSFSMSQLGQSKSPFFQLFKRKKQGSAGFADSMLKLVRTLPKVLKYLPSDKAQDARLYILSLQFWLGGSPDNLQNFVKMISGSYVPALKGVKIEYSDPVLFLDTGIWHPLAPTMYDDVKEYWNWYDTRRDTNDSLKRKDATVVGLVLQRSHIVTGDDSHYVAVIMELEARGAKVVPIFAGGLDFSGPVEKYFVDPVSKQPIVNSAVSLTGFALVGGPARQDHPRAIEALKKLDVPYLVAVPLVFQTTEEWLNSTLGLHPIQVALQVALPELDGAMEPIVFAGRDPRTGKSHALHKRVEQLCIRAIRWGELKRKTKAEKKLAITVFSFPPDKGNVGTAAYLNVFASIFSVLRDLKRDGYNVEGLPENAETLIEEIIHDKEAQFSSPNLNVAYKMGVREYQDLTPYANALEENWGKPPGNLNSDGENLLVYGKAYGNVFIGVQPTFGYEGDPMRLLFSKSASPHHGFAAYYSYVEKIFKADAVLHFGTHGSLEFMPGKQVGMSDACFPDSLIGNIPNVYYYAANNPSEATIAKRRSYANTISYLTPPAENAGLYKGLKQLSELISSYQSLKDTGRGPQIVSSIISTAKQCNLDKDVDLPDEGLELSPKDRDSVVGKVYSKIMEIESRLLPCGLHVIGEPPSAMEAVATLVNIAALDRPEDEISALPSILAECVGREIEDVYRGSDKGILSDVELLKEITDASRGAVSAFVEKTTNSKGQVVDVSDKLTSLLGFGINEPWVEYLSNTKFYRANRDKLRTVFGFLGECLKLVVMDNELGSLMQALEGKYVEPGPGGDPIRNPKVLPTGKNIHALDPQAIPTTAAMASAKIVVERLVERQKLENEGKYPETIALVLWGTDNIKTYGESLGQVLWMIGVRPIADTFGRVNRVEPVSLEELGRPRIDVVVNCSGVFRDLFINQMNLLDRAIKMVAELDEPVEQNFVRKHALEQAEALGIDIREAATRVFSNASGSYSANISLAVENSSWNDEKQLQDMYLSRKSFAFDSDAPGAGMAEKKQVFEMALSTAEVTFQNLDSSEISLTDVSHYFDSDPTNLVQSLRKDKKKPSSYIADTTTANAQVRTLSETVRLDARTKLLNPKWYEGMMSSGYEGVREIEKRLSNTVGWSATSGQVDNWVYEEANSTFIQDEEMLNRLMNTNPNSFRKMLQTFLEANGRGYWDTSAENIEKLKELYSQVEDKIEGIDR
As to the kind of experiment: Effects of ABA on Mg-chelatase activity in isolated chloroplasts. The format is biochemical. Conditions: chloroplasts pre-incubated 20 min with (±)-ABA. On the procedure:
For the effects of ABA on Mg-chelatase activity in vitro, isolation of intact chloroplasts from 3-week-old gl1 plants and assays of both […] and Mg-chelatase activity were done essentially according to the method of Walker and Weinstein (Walker, C. J. et al., Plant Physiol. 95:1189-1196 (1991); Walker, C. J. et al., Proc. Natl. Acad. Sci. USA 88:5789-5793 (1991)). Briefly, the purified chloroplasts with high degree of intactness were pre-incubated for 20 min in the chloroplast isolation buffer supplemented with different concentrations of (±)-ABA. For assaying Mg-chelatase activity, reactions were started by addition of the ABA-pretreated plastids and terminated by addition of ice-cold acetone. All the manipulations were performed under dim light to prevent porphyrin-mediated photooxidative damage. After centrifugation, the green supernatant was reserved and diluted with 4 ml of 75% (v/v) acetone. The fluorescence of the product was read directly in this acetone extract.

Entries after “also recorded” stand apart in the source; their conditions may differ.

Molecule `CC1=CC(=O)CC(C)(C)C1(O)/C=C/C(C)=C\C(=O)O` (stereo not shown) [ABA, abscisic acid] showed a dissociation constant Kd at ABAR of 0.036 µM. Besides, the ABA binding result in test [1] is given as “binds ABA specifically”. Moreover, in the test on gl1 seedlings, the MgProto contents result is on record as “enhances”, the Proto contents result is reported as “significantly decreased; also recorded: decreases” and the chlorophyll contents result is on record as “significantly decreased; also recorded: decreases”. Besides, in the test on gl1 seedlings (immunoblotting), the “ABAR expression (protein levels)” value is recorded as “stimulated; also recorded: enhances”. In addition, on Mg-chelatase, the Mg-chelatase activity entry is given as “stimulated; also recorded: enhances”.

Source of the values: patent US20090044291A1, “DROUGHT-RESISTANT PLANTS AND METHOD FOR PRODUCING THE PLANTS” (D-Helix, priority 2006, published 2009).
